Experimental data taken from publication PMC4332636, “In Vitro and In Vivo Toxicity Profiling of Ammonium-Based Deep Eutectic Solvents” (PLoS ONE, 2015).
≈ marks a conversion by molar mass, not a printed value. Like-named read-outs stand apart in the source and are kept apart here.

Experiments:
[1] = parameters: method as in PMID 18512987, PMID 19661306; conditions: previously reported; cited from earlier work
[2] = Acute toxicity (LD50) in ICR mice; format: in vivo; conditions: mouse, in vivo, oral, mortality within 14 days
Procedure: (§1) The acute toxicity of the compounds was evaluated using six Imprinting Control Region (ICR) mice per groups at 8 to 12 weeks of age, with an average body weight of 25.6 g. The animals were assigned equally into 4 groups labeled as vehicle (dH2O), high dose (20 g/kg), medium dose (10 g/kg) and low dose (5 g/kg) of the compounds. Prior to administration, the animals were fasted (food but not water) overnight and for 3 to 4 h after compounds administration to eliminate any food inside the gastrointestinal tract that might complicate absorption of the test substance. […] Animals were euthanized by CO2 asphyxiation on 15th day, and serum biochemical and histological (liver and kidney) parameters were determined following the standard method. The mortality of the mice were recorded within 14 days and used to calculate the LD50 for each compound. The mice used were housed in specific pathogen free facility at the University of Malaya. This work was designed to minimize animal suffering and number of animals used, and has been approved by the Faculty of Medicine Animal Care and Use Committee (FOMIACUC, Approval No: 2014-05-07/PHAR/R/CYL) at University of Malaya. The work was reported according to ARRIVE guideline.

HepG2 = conditions: on HepG2; cited from earlier work
ICR mice = experiment: Acute toxicity (LD50) in ICR mice; format: in vivo; conditions: mortality within 14 days
Procedure: as §1

[3] = tested on: carcinoma-derived human oral keratinocyte cells (H413); experiment: MTT cell viability assay, H413; format: cell-based; conditions: H413, 48 h treatment
From the text: (§2) Human prostate cancer cell line (PC3), human malignant melanoma cell line (A375), human liver hepatocellular cell line (HepG2) and human colon adenocarcinoma cell line (HT29) were purchased from American Type Culture Collection (ATCC, Manassas, VA). The human breast cancer cell line (MCF-7) was acquired from Cell Lines Service (300273; Eppelheim, Germany), human oral keratinocyte cell line (OKF6) cells and carcinoma-derived human oral keratinocyte cells (H413) (Sigma-aldrich, Saint Louis, MO) were received from Professor Ian Charles Paterson. MCF-7, A375, HT29 and HepG2 cells were grown in Dulbecco’s Modified Eagle Medium (DMEM, Life Technologies, Inc., Rockville, MD) supplemented with 10% heat-inactivated fetal bovine serum (FBS, Sigma-Aldrich, St. Louis, MO), 1% penicillin and streptomycin. PC3 cells were grown in Roswell Park Memorial Institute medium (RPMI) supplemented with 10% heat-inactivated fetal bovine serum (FBS, Sigma-Aldrich, St. Louis, MO), 1% penicillin and streptomycin. OKF6 cells were grown in Keratinocyte Serum-Free Medium (KSFM), supplemented with 10% heat-inactivated fetal bovine serum (FBS, Sigma-Aldrich, St. Louis, MO), 1% penicillin and streptomycin. H413 cells were grown in Dulbecco's Modified Eagle Medium/Ham's F-12 (DMEM/F12) supplemented with 10% heat-inactivated fetal bovine serum (FBS, Sigma-Aldrich, St. Louis, MO), 1% penicillin and streptomycin. Cells were cultured in tissue culture flasks (Corning, USA) and were kept in an incubator at 37°C in a humidified atmosphere with 5% CO2. For experimental purposes, cells in exponential growth phase (approximately 70–80% confluency) were used.
(§3) The influence of the solvents was determined by MTT assay (Mosmann, 1983). MCF-7, A375, HT29, HepG2, PC3, OKF6 and H413 cells were treated for 48 h. On the first day, 1.0 × 10^4 cells were seeded into a 96-well plate for 24 h incubation assay. The cells were incubated overnight at 37°C in 5% CO2. On the next day, the cells were treated with a two-fold dilution series of six concentrations of the solvents, and then incubated at 37°C in 5% CO2 for 48 h. MTT solution (4,5-dimethylthiazol-2-yl-2,5-diphenyltetrazoliumbromide) was added at 2 mg/mL, and after 2 h of incubation at 37°C in 5% CO2, DMSO was added to dissolve the formazan crystals. The plates were then read in Chameleon multitechnology microplate reader (Hidex, Turku, Finland) at 570 nm absorbance. The cell viability percentage after exposure to the solvents for 48 h was calculated by the previously described method. The ratio of the absorbance of treated cells to the absorbance of DMSO-treated control cells was determined as cell viability (percentage).

[4] = tested on: human liver hepatocellular cell line (HepG2); experiment: MTT cell viability assay, HepG2; format: cell-based; conditions: HepG2, 48 h treatment
From the text: as §2, §3

[5] = tested on: human colon adenocarcinoma cell line (HT29); experiment: MTT cell viability assay, HT29; format: cell-based
From the text: as §2, §3

[6] = tested on: human prostate cancer cell line (PC3); experiment: MTT cell viability assay, PC3; format: cell-based; conditions: PC3, 48 h treatment
From the text: as §2, §3

[7] = tested on: human breast cancer cell line (MCF-7); experiment: MTT cell viability assay, MCF-7; format: cell-based
From the text: as §2, §3

[8] = tested on: human oral keratinocyte cell line (OKF6); experiment: MTT cell viability assay, OKF6; format: cell-based; conditions: OKF6, 48 h treatment
From the text: as §2, §3

[9] = tested on: human malignant melanoma cell line (A375); experiment: MTT cell viability assay, A375; format: cell-based
From the text: as §2, §3

[10] = ORAC antioxidant activity assay
Procedure: Chemicals. Fluorescein sodium salt, AAPH (2,2′-Azobis(2-methylpropionamidine) dihydrochloride), quercetin dehydrate and trolox ((±)-6-Hydroxy-2,5,7,8-tetramethylchromane-2-carboxylic acid) were purchased from Sigma-Aldrich.
ORAC assay. ORAC (oxygen radical […]) assay was done based on procedures described previously with slight modifications. Compounds were diluted to a final concentration of 100μg/mL, with total reaction volume of 200μL. The assay was performed in a 96-well black microplate, with 25μL of samples, standard (trolox), blank (solvent/PBS) or positive control (quercetin). Subsequently, 150μL of working fluorescein solution was added to each well of assay plate. The plate was incubated at 37°C for at least 5 min. 25μL of AAPH working solution was then added to the wells, making up a total volume of 200μL. Fluorescence was recorded with excitation wavelength of 485nm and emission wavelength of 538nm. […] The values were expressed as trolox equivalent (TE).

| Compound | IC50 [3] | IC50 [4] | IC50 ([5]; HT29, 48 h treatment) | IC50 [6] | IC50 ([7]; MCF-7, 48 h treatment) | IC50 [8] | IC50 ([9]; A375, 48 h treatment) | further results |
| --- | --- | --- | --- | --- | --- | --- | --- | --- |
| C[C@@]12CCC[C@]3(C)c4cc5c(O)ccc(O)c5cc4C(=O)[C@](O)(OC1)[C@H]23 [alisiaquinol] | – | – | – | – | – | – | – | selectivity index [1]: less than 2 |
| OCCOCCOCCO [Pure TEG, triethylene glycol] | – | – | – | – | – | – | – | LD50 at 14 days [2]: 17000 ± 2040 mg/kg |
| CCCCCCCCCC[N+](C)(C)CCCCCCCCCC [[DDA][Sac], didecyldimethylammonium saccharinate] | – | – | – | – | – | – | – | IC50 (HepG2): 4.8 µM |
| NC(N)=O [Pure U, urea] | – | – | – | – | – | – | – | LD50 (ICR mice): >20000 mg/kg |
| OCC(O)CO [Pure Gl, glycerine] | – | – | – | – | – | – | – | LD50 at 14 days [2]: 20600 ± 2160 mg/kg |
| CC/C(=C(/CCN1CCCCC1)c1ccc(O)cc1)c1ccc(O)cc1 [piperidinyl-diethylstilbestrol] | – | – | – | – | – | – | – | selectivity index [1]: less than 2 |
| 4-Hydroxy tamoxifen | – | – | – | – | – | – | – | selectivity index [1]: less than 2 |
| C[N+](C)(C)CCO.[Cl-] [Solvent 6, choline chloride] | 21.84 ± 2.65 mg/L | 12.69 ± 1.63 mg/L | 11.79 ± 0.43 mg/L | 13.60 ± 2.94 mg/L | 13.05 ± 2.09 mg/L | 24.58 ± 2.81 mg/L | 8.64 ± 1.75 mg/L | – |
| NC(N)=O [Solvent 11, urea] | 20.22 ± 1.69 mg/L (≈ 337 µM) | 24.23 ± 4.02 mg/L (≈ 403 µM) | 13.93 ± 2.16 mg/L (≈ 232 µM) | 23.09 ± 5.22 mg/L (≈ 384 µM) | – | 28.22 ± 1.05 mg/L (≈ 470 µM) | 11.21 ± 1.38 mg/L (≈ 187 µM) | – |
| OCCO [Pure EG, ethylene glycol] | – | – | – | – | – | – | – | LD50 (ICR mice): 9710 ± 1950 mg/kg |
| O=c1c(O)c(-c2ccc(O)c(O)c2)oc2cc(O)cc(O)c12 [Quercetin, quercetin dehydrate] | – | – | – | – | – | – | – | net AUC ([10]; compounds at 100μg/mL): 6353346; mM of Trolox per 100μg/mL ([10]; trolox equivalent): 0.02141 mM of Trolox per 100μg/mL; μM of Trolox per 100μg/mL ([10]; trolox equivalent): 21.411 μM of Trolox per 100μg/mL |
| OCCOCCOCCO [Solvent 15, triethylene glycol] | – | – | – | – | – | – | – | IC50 ([3]; Homo sapiens, Keratinocyte, read-out: IC50): 32.1 ± 3.1 mg/L (≈ 214 µM); IC50 ([4]; Homo sapiens, read-out: IC50): 33.9 ± 4.94 mg/L (≈ 226 µM); IC50 ([5]; Homo sapiens, HT-29, HT29, 48 h treatment, read-out: IC50): 20.2 ± 2.75 mg/L (≈ 135 µM); IC50 ([6]; Homo sapiens, read-out: IC50): 23.1 ± 1.32 mg/L (≈ 154 µM); IC50 ([7]; Homo sapiens, MCF7, MCF-7, 48 h treatment, read-out: IC50): 18.3 ± 2.15 mg/L (≈ 122 µM); IC50 ([8]; Homo sapiens, read-out: IC50): 29.8 ± 1.45 mg/L (≈ 198 µM); IC50 ([9]; Homo sapiens, A-375, A375, 48 h treatment, read-out: IC50): 14.6 ± 0.64 mg/L (≈ 97.4 µM) |
| OCCO [Solvent 7, ethylene glycol] | 62.29 ± 8.94 mg/L (≈ 1000 µM) | 44.33 ± 5.86 mg/L (≈ 714 µM) | 43.72 ± 3.97 mg/L (≈ 704 µM) | 32.48 ± 1.06 mg/L (≈ 523 µM) | 53.91 ± 6.17 mg/L (≈ 869 µM) | 75.62 ± 6.33 mg/L (≈ 1220 µM) | 40.59 ± 5.27 mg/L (≈ 654 µM) | – |
| C[N+](C)(C)CCO.[Cl-] [Solvent 2, choline chloride] | 19.61 ± 4.19 mg/L | 14.26 ± 1.43 mg/L | 13.41 ± 1.73 mg/L | 11.94 ± 1.35 mg/L | 8.95 ± 0.98 mg/L | 26.53 ± 1.97 mg/L | 7.584 ± 2.31 mg/L | – |
| OCC(O)CO [Solvent 3, glycerine] | 101.02 ± 18.54 mg/L (≈ 1100 µM) | 68.85 ± 11.74 mg/L (≈ 748 µM) | 63.80 ± 7.23 mg/L (≈ 693 µM) | 42.38 ± 3.96 mg/L (≈ 460 µM) | 74.73 ± 6.67 mg/L (≈ 811 µM) | 129.31 ± 8.23 mg/L (≈ 1400 µM) | 67.65 ± 6.83 mg/L (≈ 735 µM) | – |
| C[N+](C)(C)CCO.[Cl-] [Solvent 14, choline chloride] | 21.49 ± 0.57 mg/L | 14.60 ± 2.53 mg/L | 8.939 ± 1.43 mg/L | 10.18 ± 0.95 mg/L | 12.23 ± 0.39 mg/L | 21.74 ± 1.04 mg/L | 12.75 ± 1.23 mg/L | – |
| C[N+](C)(C)CCO.[Cl-] [Solvent 10, choline chloride] | 38.41 ± 4.03 mg/L | 25.99 ± 1.85 mg/L | 18.75 ± 1.65 mg/L | 28.88 ± 2.64 mg/L | 12.51 ± 0.71 mg/L | 32.49 ± 3.41 mg/L | 10.54 ± 0.34 mg/L | – |
